Assay results as given in patent US20250213707A1, “COMPOUND FOR INCREASING EFFICACY OF ONCOLYTIC VIRUSES” (ABLEVIA BIOTECH GMBH, priority 2022, published 2025).

Test system: IgG from human donors (anti-AAV antibodies)
Experiment: Screen for anti-AAV antibodies in human sera, 2452 linear 15-amino-acid AAV peptides on microarrays (Table 1)
Assay type: binding
Design: key to group I: X: the deduplicated aggregate of the respective top 10 peptide hits for each donor was compiled and designated as group I; key to group II: X: the deduplicated aggregate of the respective top 25 peptide hits for each donor was compiled and designated as group II; key to group III: X: the deduplicated aggregate of the respective top 50 peptide hits for each donor was compiled and designated as group III
Details: for group I: membership in deduplicated aggregate of top 10 peptide hits for each donor
Description: 2452 linear peptides derived from the sequences of 16 different AAVs and with a sequence length of 15 amino-acids each were synthesized.
Samples obtained from human donors were screened for antibodies against these AAV-derived peptides immobilized on microarrays. To this end, IgG was prepared from blood obtained from the human donors by protein G purification. Each IgG sample was incubated with the peptide microarrays and Ig binding signals were detected by fluorescence. All antibody binding signals to the peptides on the arrays were background subtracted and ranked for each sample and a deduplicated aggregate of the respective top 250 peptide hits for each donor with the corresponding protein sequence of origin (as obtained from UniProt or other sources) was compiled (designated as group IV). Further, the deduplicated aggregate of the respective top 50 peptide hits for each donor was compiled and designated as group III. Further, the deduplicated aggregate of the respective top 25 peptide hits for each donor was compiled and designated as group II. Finally, the deduplicated aggregate of the respective top 10 peptide hits for each donor was compiled and designated as group I.
Altogether, group I contains 110 distinct peptide hits (assigned to the corresponding AAV vectors in Table 1), group II contains 289 distinct peptide hits, group III contains 428 distinct peptide hits and group IV contains 1271 distinct peptide hits. Evidently, group I is a subset of group II which in turn is a subset of group III which in turn is a subset of group IV. Groups I-IV correspond to the top 4.4%, […], 17.5% and 51.8%, respectively, of all peptides screened.

[1] = X = peptide belongs to the deduplicated aggregate of the top 50 peptide hits for each donor, linear 15-amino-acid AAV peptides, IgG binding by fluorescence
[2] = X = peptide in the deduplicated aggregate of the top 50 peptide hits for each donor (top 17.5% of all peptides screened), linear 15-amino-acid AAV peptides on microarrays, human donor IgG, fluorescence
[3] = human donor IgG binding to linear 15-amino-acid AAV peptides on microarray, fluorescence
[4] = membership in deduplicated aggregate of top 25 peptide hits for each donor, human donor IgG binding to linear 15-amino-acid AAV peptides on microarray, fluorescence
[5] = membership in deduplicated aggregate of top 50 peptide hits for each donor, human donor IgG binding to linear 15-amino-acid AAV peptides on microarray, fluorescence
[6] = X = peptide belongs to the deduplicated aggregate of the top 25 peptide hits for each donor, linear 15-amino-acid AAV peptides, IgG binding by fluorescence

| Substance | group III [1] | group I [3] | group II [4] | group III [5] | also measured |
| --- | --- | --- | --- | --- | --- |
| 296 (NTPVPADPPTTFNQA; REGION 1..15: note = peptide derived from viral capsid protein) [compound 296] | X | – | – | – | – |
| 332 (ISSQSGASNDNHYFG; REGION 1..15: note = peptide derived from viral capsid protein) [compound 332] | X | – | – | – | – |
| 406 (NNNSEFAWPGASSWA; REGION 1..15: note = peptide derived from viral capsid protein) [compound 406] | – | – | – | – | group III [2]: X |
| PLVDQYLYRFVSTN (REGION 1..14: note = peptide derived from viral capsid protein) [SEQ ID NO: 1938] | – | X | X | X | – |
| 416 (LNSFITQYSTGQVSV; REGION 1..15: note = peptide derived from viral capsid protein) [compound 416] | – | – | – | – | group III [2]: X |
| 340 (FSYTFEDVPFHSSYA; REGION 1..15: note = peptide derived from viral capsid protein) [compound 340] | X | – | – | – | – |
| 327 (QVKEVTQNDGTTTIA; REGION 1..15: note = peptide derived from viral capsid protein) [compound 327] | X | – | – | – | – |
| 431 (EIKTTNPVATEEYGI; REGION 1..15: note = peptide derived from viral capsid protein) [compound 431] | – | – | – | – | group III [2]: X |
| 324 (SDIRDQSRNWLPGPC; REGION 1..15: note = peptide derived from viral capsid protein) [compound 324] | X | – | – | – | – |
| 284 (NVGGQMATNNQSSTT; REGION 1..15: note = peptide derived from viral capsid protein) [compound 284] | X | – | – | – | group II [6]: X |
| LPYVLGSAHQGCLP (REGION 1..14: note = peptide derived from viral capsid protein) [SEQ ID NO: 1954] | – | X | X | X | – |
| 298 (PLGLVESPVKTAPGK; REGION 1..15: note = peptide derived from viral capsid protein) [compound 298] | X | – | – | – | – |
| 311 (QGVLPGMVWQDRDVY; REGION 1..15: note = peptide derived from viral capsid protein) [compound 311] | X | – | – | – | – |
| PRDWQRLINNNWGF (REGION 1..14: note = peptide derived from viral capsid protein) [SEQ ID NO: 1960] | – | X | X | X | – |
| 291 (KDNVDYSSVMLTSEE; REGION 1..15: note = peptide derived from viral capsid protein) [compound 291] | X | – | – | – | – |
| 362 (AHQGCLPPFPADVFM; REGION 1..15: note = peptide derived from viral capsid protein) [compound 362] | X | – | – | – | – |
| SESVPDPQPLGEPP (REGION 1..14: note = peptide derived from viral capsid protein) [SEQ ID NO: 1922] | – | X | X | X | – |
| 337 (ADNNEGADGVGNSSG; REGION 1..15: note = peptide derived from viral capsid protein) [compound 337] | X | – | – | – | – |
| LQQQNTAPQIGTVN (REGION 1..14: note = peptide derived from viral capsid protein) [SEQ ID NO: 1934] | – | X | X | X | – |
| 329 (DADSVPDPQPLGQPP; REGION 1..15: note = peptide derived from viral capsid protein) [compound 329] | X | – | – | – | – |

| Substance | group III [1] | group I [3] | group II [4] | group III [5] | also measured |
| --- | --- | --- | --- | --- | --- |
| GQNNNSNFAWTAGT [SEQ ID NO: 1936] | – | X | X | X | – |
| 295 (DNPYLRYHADAEFQE; REGION 1..15: note = peptide derived from viral capsid protein) [compound 295] | X | – | – | – | – |
| 348 (NHYFGYSTPWGYFDF; REGION 1..15: note = peptide derived from viral capsid protein) [compound 348] | X | – | – | – | – |
| TESVPDPQPIGEPP (REGION 1..14: note = peptide derived from viral capsid protein) [SEQ ID NO: 1929] | – | X | X | X | – |
| 334 (RQWWKLKPGPPPPKP; REGION 1..15: note = peptide derived from viral capsid protein) [compound 334] | X | – | – | – | – |
| 408 (STTVTQNNNSEFAWP; REGION 1..15: note = peptide derived from viral capsid protein) [compound 408] | – | – | – | – | group III [2]: X |
| 316 (EPVKTAPGKKRPVEH; REGION 1..15: note = peptide derived from viral capsid protein) [compound 316] | X | – | – | – | – |
| 331 (DSLVNPGPAMASHKD; REGION 1..15: note = peptide derived from viral capsid protein) [compound 331] | X | – | – | – | – |
| ESVPDPQPIGEPPA [SEQ ID NO: 1947] | – | X | X | X | – |
| 354 (YFDFNRFHCHFSPRD; REGION 1..15: note = peptide derived from viral capsid protein) [compound 354] | X | – | – | – | – |
| DKAYDQQLKAGDNP (REGION 1..14: note = peptide derived from viral capsid protein) [SEQ ID NO: 1941] | – | X | X | X | – |
| 299 (SRTQSTGGTAGTQQL; REGION 1..15: note = peptide derived from viral capsid protein) [compound 299] | X | – | – | – | – |
| 281 (SKPSTSSDAEAGPSG; REGION 1..15: note = peptide derived from viral capsid protein) [compound 281] | X | – | – | – | group II [6]: X |
| 315 (PFPADVFMVPQYGYL; REGION 1..15: note = peptide derived from viral capsid protein) [compound 315] | X | – | – | – | – |
| 366 (MVWQDRDVYLQGPIW; REGION 1..15: note = peptide derived from viral capsid protein) [compound 366] | X | – | – | – | – |
| 454 (YFGYSTPWGYFDFNR; REGION 1..15: note = peptide derived from viral capsid protein) [compound 454] | – | – | – | – | group III [2]: X |
| SEPRPIGTRYLTRN (REGION 1..14: note = peptide derived from viral capsid protein) [SEQ ID NO: 1964] | – | X | X | X | – |
| EYQLPYVLGSAHQG (REGION 1..14: note = peptide derived from viral capsid protein) [SEQ ID NO: 1948] | – | X | X | X | – |
| GTNTMATGSGAPMA (REGION 1..14: note = peptide derived from viral capsid protein) [SEQ ID NO: 1927] | – | X | X | X | – |
